From patent US12193465B2, “Materials and methods for extending shelf-life of foods” (JP Laboratories, Inc., priority 2021, dated 2025)

How the values were obtained:
[1] = tested on: avocado; test: Softening / rotten inside (spoiled flesh) of avocado; details: for Spoilage Time - Sample: Softening, Avocado, control 2 days
Text: Most of the foods changed color or texture.
(§1) The assembly was shaken periodically.

[2] = General shelf-life extension of foods (spoilage criteria of Example 9)
[3] = tested on: grains, legumes, potatoes, garlic; test: Germination / sprouting of grains, legumes and tubers
Text: These bags were sealed with a heat sealer.
as §1

Q: For `C=CCN=C=S` [AI, allyl isothiocyanate], which “Spoilage Time - Sample” value ([1]; Example 77, 0.25 hr P-E) is on record?
A: 2 days

Q: What about the “Spoilage Time - Sample” value ([1]; Example 78, 2 hrs P-E) of the same molecule?
A: 2 days

Q: And the “Spoiling of the flesh with development of fungus” value ([1]; avocados, Examples 77, 78, 107, 108, 113 & 171)?
A: significantly delayed

Q: And the “Shelf-life of flowery vegetables” value ([2]; flowery vegetables)?
A: extended shelf-life

Q: What about the Shelf-life extension ([2]; tindora dipped in solution) of the same molecule?
A: demonstrated shelf-life extension

Q: What about the “Effectiveness as shelf-life extender” value ([2]; tofu) of the same molecule?
A: effective

Q: What about the “Effectiveness for controlling one or more spoilage criteria” value ([2]; variety of foods) of the same molecule?
A: effective to a greater or lesser extent

Q: And the “Spoilage Time - Sample” value ([3]; Example 66, Germination, Mixed Legumes (T), 0.10 g, control 3 days)?
A: 9 days

Q: And the “Spoilage Time - Sample” value ([3]; Example 67, Germination, Mixed Legumes, Sachet, control 4 days)?
A: 21 days

Q: And the “Spoilage Time - Sample” value ([3]; Example 67, Germination, Mixed Legumes, Sachet, control 4 days, listed as allyl isothiocyanate)?
A: > 21 days

Q: And the “Spoilage Time - Sample” value ([3]; Example 68, Germination, Mixed Legumes, Sachet, control 3 days)?
A: 9 days

Q: What about the “Spoilage Time - Sample” value ([3]; Example 69, Germination, Soft White Wheat, Sachet, control 4 days) of the same molecule?
A: 21 days

Q: What about the “Spoilage Time - Sample” value ([3]; Example 70, Germination, Soft White Wheat, 5 ml of 10% allyl isothiocyanate solution in water, control 4 days) of the same molecule?
A: 21 days

Q: And the “Spoilage Time - Sample” value ([3]; Example 71, Germination, Unshelled Rice, Sachet, control 3 days)?
A: 15 days

Q: And the “Spoilage Time - Sample” value ([3]; Example 79, Sprouting, Red Potatoes, 2 hrs P-E, control 9 days)?
A: 16 days

Q: And the “Spoilage Time - Sample” value ([3]; Example 80, Sprouting, Mix of red, purple and yellow potatoes, 4 hrs P-E, control 22 days)?
A: 46 days

Q: And the “Spoilage Time - Sample” value ([3]; Example 81, Sprouting, Fingerling Potatoes, 2 hrs P-E, control 37 days)?
A: 59 days

Q: And the “Spoilage Time - Sample” value ([3]; Example 82, Sprouting, Sprouted Garlic, 0.5 hr P-E, control 4 days)?
A: 4+ days

Q: And the “Spoilage Time - Sample” value ([3]; Example 82, Sprouting, Sprouted Garlic, 0.5 hr P-E, control 4 days, listed as allyl isothiocyanate)?
A: no further growth of sprouts

Q: What about the Germination and/or fungus ([3]; flooded shelled peanuts, a drop in flooded water, control 5 days) of the same molecule?
A: > 8 days

Q: What about the Sprouting ([3]; various types of potatoes, vapor or sachet, Examples 79-81) of the same molecule?
A: either prevented or significantly delayed
